Data: ChEMBL document CHEMBL1641439, “The effect of 5-substitution on the electrochemical behavior and antitubercular activity of PA-824” (2011)
Converted amounts (≈) assume the structure as drawn.

Legend:
[1] = tested on: Mycobacterium tuberculosis; assay: Antituberculosis activity against Mycobacterium tuberculosis H37Rv after 2 weeks; type: functional; details: 336 h
[2] = tested on: Mycobacterium tuberculosis; assay: Antituberculosis activity against Mycobacterium tuberculosis H37Rv assessed as minimum anaerobicidal cancentration after 3 weeks; type: functional

SMILES	MIC [1] [µM]	MAC [2] [µM]
O=[N+]([O-])c1nc2n(c1Cl)C[C@H](OCc1ccc(OC(F)(F)F)cc1)CO2	25 (≈ 9.84 µg/mL)	–
Nc1c([N+](=O)[O-])nc2n1C[C@H](OCc1ccc(OC(F)(F)F)cc1)CO2	> 100	>100
N#Cc1c([N+](=O)[O-])nc2n1C[C@H](OCc1ccc(OC(F)(F)F)cc1)CO2	> 100	–
O=[N+]([O-])c1cn2c(n1)OC[C@@H](OCc1ccc(OC(F)(F)F)cc1)C2 [PRETOMANID]	0.8 (≈ 0.287 µg/mL)	8
O=[N+]([O-])c1nc2n(c1Br)C[C@H](OCc1ccc(OC(F)(F)F)cc1)CO2	25 (≈ 11 µg/mL)	32.5
